Source: US20080300280A1, “Cyanobenzene Compounds for Combating Animal Pests” (priority 2005, published 2008)
Where two headings read alike, the source gives them in different places.

Columns and labels:
[1] = test system: Cotton Aphid (aphis gossypii), mixed life stages; assay: Cotton aphid (Aphis gossypii), mixed life stages, leaf-dip test on cotton plants; format: in vivo; details: 120 h, read-out: mortality of cotton aphid in comparison with untreated controls
Experimental: (§1) The active compounds were formulated in a mixture of 50 vol.-% acetone:50 vol.-% water. A nonionic surfactant (Kinetic®) was included in the solution at a volume of 0.01% v/v.
(§2) In the following tests, the formulated solutions of the active compounds were diluted to an active ingredient concentration of 300 ppm and the diluted solutions were applied in the below mentioned tests.
II.1 Cotton Aphid (aphis gossypii), Mixed Life Stages
Cotton plants at the cotyledon stage were infested prior to treatment by placing a heavily infested leaf from the main aphid colony on top of each cotyledon. The aphids were allowed to transfer overnight and the host leaf was removed. The infested cotyledons were then dipped and agitated in the test solution for 3 seconds and allowed to dry in a fume hood. Test plants were maintained under fluorescent lighting in a 24-hr photoperiod at 25° C. and 20-40% relative humidity. Aphid mortality on the treated plants, relative to mortality on untreated check plants, was determined after 5 days.

Bean Aphid (Aphis fabae) = assay: Bean aphid (Aphis fabae), plant-dip test on nasturtium plants; format: in vivo; details: 72 h, read-out: mortality of bean aphid in comparison with untreated controls
Experimental: as §1, §2
11.3 Bean Aphid (Aphis fabae)
Nasturtium plants grown in Metro mix in the 1st leaf-pair stage (variety ‘Mixed Jewel’) were infested with approximately 2-30 laboratory-reared aphids by placing infested cut plants on top of the test plants. The cut plants were removed after 24 hr. Each plant was dipped into the test solution to provide complete coverage of the foliage, stem, protruding seed surface and surrounding cube surface and allowed to dry in the fume hood. The treated plants were kept at about 25° C. with continuous fluorescent light. Aphid mortality is determined after 3 days.

[2] = test system: Green Peach Aphid (Myzus persicae), mixed life stages; assay: Green peach aphid (Myzus persicae), mixed life stages, leaf-dip test on bell pepper plants; format: in vivo; details: 120 h, read-out: mortality of green peach aphid in comparison with untreated controls
Experimental: as §1, §2
II.2 Green Peach Aphid (Myzus persicae), Mixed Life Stages
Bell pepper plants at the first true-leaf stage were infested prior to treatment by placing heavily infested leaves from the main aphid colony on top of the treatment plants. The aphids were allowed to transfer overnight to accomplish an infestation of 30-40 aphids per plant and the host leaves were removed. The infested leaves of the test plants were then dipped and agitated in the test solution for 3 seconds and allowed to dry in a fume hood. Test plants were maintained under fluorescent lighting in a 24-hr photoperiod at 25° C. and 20-40% relative humidity. Aphid mortality on the treated plants, relative to mortality on untreated check plants, was determined after 5 days.

[3] = 300 ppm, infested cotton cotyledons dipped 3 seconds, after 5 days
[4] = 300 ppm, infested nasturtium plants dipped, after 3 days
[5] = 300 ppm, infested bell pepper leaves dipped 3 seconds, after 5 days

SMILES	mortality at 300 ppm [1, 3] [%]	mortality at 300 ppm (Bean Aphid (Aphis fabae); [4]) [%]	mortality at 300 ppm [2, 5] [%]	further results
C#CCN(C(C)=O)S(=O)(=O)c1cccc(C)c1C#N [Example 7]	≥ 86	≥ 86	≥ 86	–
CCO/C(=N\S(=O)(=O)c1cccc(C)c1C#N)NC(C)(C)C [Example 30]	–	≥ 86	–	–
C/C(=N\S(=O)(=O)c1cccc(C)c1C#N)C(C)(C)C [Example 37, 2-Cyano-3-methyl-N-(1,2,2-trimethyl-propylidene)-benzenesulfonamide]	≥ 86	≥ 86	≥ 86	–
CCN(C(=O)Oc1ccccc1)S(=O)(=O)c1cccc(C)c1C#N [Example 26]	–	–	–	mortality at 300 ppm [1]: ≥ 86%; mortality at 300 ppm (Bean Aphid (Aphis fabae)): ≥ 86%
CCN(C(C)=O)S(=O)(=O)c1c(F)ccc(OC)c1C#N [Example 16]	≥ 86	–	≥ 86	–
Cc1cccc(S(=O)(=O)n2cccn2)c1C#N [Example 46, 2-Methyl-6-(pyrazole-1-sulfonyl)-benzonitrile]	–	–	–	melting point: 99 to 104 °C
Cc1cccc(S(=O)(=O)N2CCCCC2=O)c1C#N [Example 19]	≥ 86	–	–	–
Cc1cccc(S(=O)(=O)/N=C/N(C)C)c1C#N [Example 35, 2-Cyano-3-methyl-N-dimethylaminomethylene-benzenesulfonamide]	≥ 86	≥ 86	≥ 86	–
Cc1cccc(S(=O)(=O)n2ccnc2)c1C#N [Example 48, 2-Methyl-6-(imidazole-1-sulfonyl)-benzonitrile]	≥ 86	–	≥ 86	–
N#Cc1c(OC(F)F)cccc1S(=O)(=O)n1cccc1 [Example 42]	≥ 86	≥ 86	≥ 86	–
Cc1cccc(S(=O)(=O)NC(=O)Oc2ccccc2)c1C#N [Example 25]	–	–	–	mortality at 300 ppm [1]: ≥ 86%; mortality at 300 ppm (Bean Aphid (Aphis fabae)): ≥ 86%
CO/C(C)=N\S(=O)(=O)c1cccc(OC(F)F)c1C#N [Example 36]	≥ 86	≥ 86	≥ 86	–
Cc1cccc(S(=O)(=O)n2cncn2)c1C#N [Example 47, 2-Methyl-6-([1.2.4]-triazole-1-sulfonyl)-benzonitrile]	–	–	–	melting point: 142 to 144 °C
N#Cc1c(OC(F)F)cccc1S(=O)(=O)N=S1CCCC1 [Example 39]	≥ 86	–	≥ 86	–
C=CCOC(=O)N(CC)S(=O)(=O)c1cccc(C)c1C#N [Example 27]	–	–	–	mortality at 300 ppm [1]: ≥ 86%; mortality at 300 ppm (Bean Aphid (Aphis fabae)): ≥ 86%; mortality at 300 ppm [2]: ≥ 86%
C#CCN(C(=O)CC)S(=O)(=O)c1cccc(C)c1C#N [Example 8]	≥ 86	≥ 86	≥ 86	–
CCN(C(=O)NC(C)C)S(=O)(=O)c1cccc(C)c1C#N [Example 23]	≥ 86	≥ 86	≥ 86	–
CO/C(C)=N\S(=O)(=O)c1cccc(C)c1C#N [Example 34, 2-Cyano-N-(1-methoxyethylidene)-3-methyl-benzenesulfonamide]	≥ 86	–	≥ 86	–
Cc1cccc(S(=O)(=O)NC(=O)C(C)C)c1C#N [Example 14]	≥ 86	≥ 86	≥ 86	–
Cc1cccc(S(=O)(=O)N(C(=O)C(F)(F)F)C(C)C)c1C#N [Example 12]	≥ 86	≥ 86	≥ 86	–
CCNC(=O)N(CC)S(=O)(=O)c1cccc(C)c1C#N [Example 21]	≥ 86	≥ 86	≥ 86	–
Cc1cccc(S(=O)(=O)N2CCCC2=O)c1C#N [Example 18, 2-Methyl-6-(2-oxo-pyrrolidine-1-sulfonyl)benzonitrile]	≥ 86	≥ 86	–	–
Cc1cccc(S(=O)(=O)n2ccc(CO)c2)c1C#N [Example 43]	≥ 86	–	≥ 86	–

SMILES	mortality at 300 ppm [1, 3] [%]	mortality at 300 ppm (Bean Aphid (Aphis fabae); [4]) [%]	mortality at 300 ppm [2, 5] [%]	further results
CCO/C(=N\S(=O)(=O)c1cccc(C)c1C#N)NC(C)C [Example 29, N-(Isopropylamino-ethoxy-methylene)-2-cyano-3-methyl-benzenesulfonamide]	–	–	–	melting point: 139 to 142 °C
CCN(C(=O)C(F)(F)F)S(=O)(=O)c1cccc(C)c1C#N [Example 6]	≥ 86	≥ 86	≥ 86	–
Cc1cccc(S(=O)(=O)N=S(C(C)C)C(C)C)c1C#N [Example 40]	≥ 86	–	≥ 86	–
CCC(=O)NS(=O)(=O)c1cccc(C)c1C#N [Example 13]	≥ 86	≥ 86	≥ 86	–
Cc1cccc(S(=O)(=O)NC(=O)OCc2ccccc2)c1C#N [Example 28, N-(Benzyloxycarbonyl)-2-cyano-3-methyl-benzenesulfonamide]	–	–	–	mortality at 300 ppm [1]: ≥ 86%; mortality at 300 ppm [2]: ≥ 86%
CCN(C(=O)Nc1ccccc1)S(=O)(=O)c1cccc(C)c1C#N [Example 22, N-Ethyl-N-(2-cyano-3-methyl-benzenesulfonyl)-N′-phenyl urea]	≥ 86	–	≥ 86	–
COC(=NS(=O)(=O)c1cccc(C)c1C#N)OC [Example 32, 2-Cyano-N-dimethoxymethylene-3-methyl-benzenesulfonamide]	≥ 86	≥ 86	–	–
CCN(C(C)=O)S(=O)(=O)c1cccc(C)c1C#N [Example 2, N-Acetyl-N-ethyl-2-cyano-3-methyl-benzene-sulfonamide]	≥ 86	≥ 86	≥ 86	–
CC(=O)NS(=O)(=O)c1cccc(C)c1C#N [Example 1]	≥ 86	–	≥ 86	–
C=CC(=O)N(CC)S(=O)(=O)c1cccc(C)c1C#N [Example 10]	≥ 86	–	–	–
CCC(=O)N(CC)S(=O)(=O)c1cccc(C)c1C#N [Example 5]	≥ 86	≥ 86	≥ 86	–
CCC(C)NC(=O)N(CC)S(=O)(=O)c1cccc(C)c1C#N (centres unmarked) [Example 24]	≥ 86	–	–	–
CCN(C(C)=O)S(=O)(=O)c1cccc(OC(F)F)c1C#N [Example 15]	≥ 86	≥ 86	≥ 86	–
Cc1cccc(S(=O)(=O)n2ccc(Br)c2)c1C#N [Example 45, 2-Methyl-6-(3-bromo-pyrrole-1-sulfonyl)-benzonitrile]	≥ 86	–	≥ 86	–
COc1cccc(S(=O)(=O)N(OC)C(C)=O)c1C#N [Example 3]	≥ 86	–	≥ 86	–
C#CCN(C(=O)C(F)(F)F)S(=O)(=O)c1cccc(C)c1C#N [Example 11]	≥ 86	≥ 86	≥ 86	–
CC(=O)OCc1ccn(S(=O)(=O)c2cccc(C)c2C#N)c1 [Example 44]	≥ 86	≥ 86	≥ 86	–
CCN(C(=O)c1ccccc1)S(=O)(=O)c1cccc(C)c1C#N [Example 17]	≥ 86	≥ 86	–	–
CCOC(=NS(=O)(=O)c1cccc(OC(F)F)c1C#N)OCC [Example 33]	≥ 86	≥ 86	≥ 86	–
CC(=O)N(C(C)C)S(=O)(=O)c1cccc(C)c1C#N [Example 9]	≥ 86	–	≥ 86	–
CCOC(=NS(=O)(=O)c1cccc(C)c1C#N)OCC [Example 31]	≥ 86	≥ 86	≥ 86	–
Cc1cccc(S(=O)(=O)n2cccc2)c1C#N [Example 41, 2-Methyl-6-(pyrrole-1-sulfonyl)-benzonitrile]	≥ 86	≥ 86	≥ 86	–
Cc1cccc(S(=O)(=O)N=S2CCCC2)c1C#N [Example 38, 2-Cyano-3-methyl-N-(tetrahydro-thiphophen-1-ylidene)benzenesulfonamide]	≥ 86	≥ 86	≥ 86	–
